Measurements: US9969752B2, “Inhibitors of HIF prolyl hydroxylase” (MERCK SHARP & DOHME CORP., priority 2014, dated 2018)

Biological target: T1, Human HIF-PHD2 (Homo sapiens, UniProt Q9GZT9)
T1 construct: FLAG-tagged full length PHD2 expressed in and purified from baculovirus-infected Sf9 cells; FLAG; made in house; host or cells: baculovirus-infected Sf9 cells
Test: Inhibition of the hydroxylation of a HIF peptide by PHD2 (time resolved fluorescence, 384-well)
Format: biochemical
Details: FLAG-tagged full length PHD2; 0.2 μM 2-oxoglutarate, 0.5 μM HIF-1α peptide; 45 minutes at room temperature; read-out: Human HIF-PHD2 IC50

T1 sequence (Q9GZT9 whole entry): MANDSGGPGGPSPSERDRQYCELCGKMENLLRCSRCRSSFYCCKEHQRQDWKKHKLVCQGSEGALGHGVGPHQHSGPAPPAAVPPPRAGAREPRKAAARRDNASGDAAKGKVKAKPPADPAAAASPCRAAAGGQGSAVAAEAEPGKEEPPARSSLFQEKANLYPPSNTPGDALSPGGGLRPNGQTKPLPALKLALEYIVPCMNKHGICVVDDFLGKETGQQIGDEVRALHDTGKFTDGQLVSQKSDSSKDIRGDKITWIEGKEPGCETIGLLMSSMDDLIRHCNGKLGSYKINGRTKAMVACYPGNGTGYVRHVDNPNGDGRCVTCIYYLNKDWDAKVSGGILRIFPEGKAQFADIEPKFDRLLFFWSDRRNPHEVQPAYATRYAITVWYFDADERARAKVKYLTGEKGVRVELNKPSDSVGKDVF

IC50 [nM] | Structure (SMILES)
1.7 | CS(=O)(=O)c1cc2c3c(c1)c(O)c(C(=O)NCC(=O)O)c(=O)n3C(Cc1ccc(C(F)(F)F)cc1)CO2 (centres unmarked) [Example 6, 2-(7-Hydroxy-9-(methylsulfonyl)-5-oxo-3-(4-(trifluoromethyl)benzyl)-3,5-dihydro-2H-[1,4]oxazino[2,3,4-ij]quinoline-6-carboxamido)acetic acid]
21 | O=C(O)CNC(=O)c1c(O)c2cccc3c2n(c1=O)C(Cc1ccc(C(F)(F)F)cc1)CO3 (centres unmarked) [Example 3, 2-(7-Hydroxy-5-oxo-3-(4-(trifluoromethyl)benzyl)-3,5-dihydro-2H-[1,4]oxazino[2,3,4-ij]quinoline-6-carboxamido)acetic acid]
18 | O=C(O)CNC(=O)c1c(O)c2cc(Br)cc3c2n(c1=O)C(Cc1ccc(C(F)(F)F)cc1)CO3 (centres unmarked) [Example 5, 2-(9-Bromo-7-hydroxy-5-oxo-3-(4-(trifluoromethyl)benzyl)-3,5-dihydro-2H-[1,4]oxazino[2,3,4-ij]quinoline-6-carboxamido)acetic acid]
17 | Cc1ccc2c(O)c(C(=O)NCC(=O)O)c(=O)n3c2c1OCC3Cc1ccc(C(F)(F)F)cc1 (centres unmarked) [Example 33, 2-(7-Hydroxy-10-methyl-5-oxo-3-(4-(trifluoromethyl)benzyl)-3,5-dihydro-2H-[1,4]oxazino[2,3,4-ij]quinoline-6-carboxamido)acetic acid]
4.4 | O=C(O)CNC(=O)c1c(O)c2cc(Br)cc3c2n(c1=O)CC(c1ccc(C(F)(F)F)cc1)O3 (centres unmarked) [Example 16, 2-(9-Bromo-7-hydroxy-5-oxo-2-(4-(trifluoromethyl)phenyl)-3,5-dihydro-2H-[1,4]oxazino[2,3,4-ij]quinoline-6-carboxamido)acetic acid]
0.839 | N#Cc1cc2c3c(c1)c(O)c(C(=O)NCC(=O)O)c(=O)n3CC(c1ccc(C(F)(F)F)cc1)[S+]2[O-] (centres unmarked) [Example 91, 2-(9-Cyano-7-hydroxy-1-oxido-5-oxo-2-(4-(trifluoromethyl)phenyl)-3,5-dihydro-2H-[1,4]thiazino[2,3,4-ij]quinoline-6-carboxamido)acetic acid]
13 | O=C(O)CNC(=O)c1c(O)c2ccnc3c2n(c1=O)CC(c1ccc(C(F)(F)F)cc1)O3 (centres unmarked) [Example 51, 2-(7-Hydroxy-5-oxo-2-(4-(trifluoromethyl)phenyl)-3,5-dihydro-2H-[1,4]oxazino[2,3,4-ij][1,7]naphthyridine-6-carboxamido)acetic acid]
2.6 | O=C(O)CNC(=O)c1c(O)c2ccc(Cl)c3c2n(c1=O)CC(c1ccc(C(F)(F)F)cc1)O3 (single isomer, unassigned) [Example 72, 2-(10-Chloro-7-hydroxy-5-oxo-2-(4-(trifluoromethyl)phenyl)-3,5-dihydro-2H-[1,4]oxazino[2,3,4-ij]quinoline-6-carboxamido)acetic acid]
4.3 | O=C(O)CNC(=O)c1c(O)c2ccc(F)c3c2n(c1=O)CC(c1ccc(C(F)(F)F)cc1)O3 (centres unmarked) [Example 67, 2-(10-Fluoro-7-hydroxy-5-oxo-2-(4-(trifluoromethyl)phenyl)-3,5-dihydro-2H-[1,4]oxazino[2,3,4-ij]quinoline-6-carboxamido)acetic acid]

The remaining lines, values behind:

Structure (SMILES) | IC50 [nM]
N#Cc1ccc2c(O)c(C(=O)NCC(=O)O)c(=O)n3c2c1CCC3 [Example 44, 2-(8-Cyano-1-hydroxy-3-oxo-3,5,6,7-tetrahydropyrido[3,2,1-ij]quinoline-2-carboxamido)acetic acid] | 0.9
Cc1ccc2c3c1c(O)c(C(=O)NCC(=O)O)c(=O)n3CC(c1ccc(C(F)(F)F)cc1)O2 (centres unmarked) [Example 63, 2-(7-Hydroxy-8-methyl-5-oxo-2-(4-(trifluoromethyl)phenyl)-3,5-dihydro-2H-[1,4]oxazino[2,3,4-ij]quinoline-6-carboxamido)acetic acid] | 13
N#Cc1ccc2c3c1c(O)c(C(=O)NCC(=O)O)c(=O)n3CC(c1ccc(C(F)(F)F)cc1)N2 (centres unmarked) [Example 94, 2-(8-Cyano-7-hydroxy-5-oxo-2-(4-(trifluoromethyl)phenyl)-1,2,3,5-tetrahydropyrido[1,2,3-de]quinoxaline-6-carboxamido)acetic acid] | 0.8
O=C(O)CNC(=O)c1c(O)c2cccc3c2n(c1=O)CC(c1ccc(C(F)(F)F)nc1)S3(=O)=O (centres unmarked) [Example 104, 2-(7-Hydroxy-1,1-dioxido-5-oxo-2-(6-(trifluoromethyl)pyridin-3-yl)-3,5-dihydro-2H-[1,4]thiazino[2,3,4-ij]quinoline-6-carboxamido)acetic acid] | 6.3
O=C(O)CNC(=O)c1c(O)c2ccc(Br)c3c2n(c1=O)CC(c1ccc(Br)cc1)O3 (centres unmarked) [Example 57, 2-(10-Bromo-2-(4-bromophenyl)-7-hydroxy-5-oxo-3,5-dihydro-2H-[1,4]oxazino[2,3,4-ij]quinoline-6-carboxamido)acetic acid] | 2.7

Same assay, conditions: FLAG-tagged full length PHD2; 0.2 μM 2-oxoglutarate, 0.5 μM HIF-1α peptide; 45 minutes at room temperature; read-out: MS m/z (M + 1)+ and human HIF-PHD2 IC50

IC50 [nM] | Structure (SMILES)
47 | O=C(O)CNC(=O)c1c(O)c2cc(Br)cc3c2n(c1=O)C(c1ccc(C(F)(F)F)cc1)CO3 (centres unmarked) [Example 159, 2-(9-bromo-7-hydroxy-5-oxo-3-(4-(trifluoromethyl)phenyl)-3,5-dihydro-2H-[1,4]oxazino[2,3,4-ij]quinoline-6-carboxamido)acetic acid]
16 | O=C(O)CNC(=O)c1c(O)c2cc(Cl)cc3c2n(c1=O)C(c1ccc(C(F)(F)F)cc1)CO3 (centres unmarked) [Example 166, 2-(9-chloro-7-hydroxy-5-oxo-3-(4-(trifluoromethyl)phenyl)-3,5-dihydro-2H-[1,4]oxazino[2,3,4-ij]quinoline-6-carboxamido)acetic acid]
16 | O=C(O)CNC(=O)c1c(O)c2cc(F)cc3c2n(c1=O)C(c1ccc(C(F)(F)F)cc1)CO3 (centres unmarked) [Example 158, 2-(9-fluoro-7-hydroxy-5-oxo-3-(4-(trifluoromethyl)phenyl)-3,5-dihydro-2H-[1,4]oxazino[2,3,4-ij]quinoline-6-carboxamido)acetic acid]
19 | O=C(O)CNC(=O)c1c(O)c2ccc(Cl)c3c2n(c1=O)C(c1ccc(C(F)(F)F)cc1)CO3 (centres unmarked) [Example 165, 2-(10-chloro-7-hydroxy-5-oxo-3-(4-(trifluoromethyl)phenyl)-3,5-dihydro-2H-[1,4]oxazino[2,3,4-ij]quinoline-6-carboxamido)acetic acid]
11 | O=C(O)CNC(=O)c1c(O)c2ccc(-c3ccn[nH]3)c3c2n(c1=O)C(c1ccc(C(F)(F)F)cc1)CO3 (centres unmarked) [Example 140, 2-(7-hydroxy-5-oxo-10-(1H-pyrazol-5-yl)-3-(4-(trifluoromethyl)phenyl)-3,5-dihydro-2H-[1,4]oxazino[2,3,4-ij]quinoline-6-carboxamido)acetic acid]

Further lines, the compound ahead of its results:

Structure (SMILES) | IC50 [nM]
COc1ccc(-c2ccc3c(O)c(C(=O)NCC(=O)O)c(=O)n4c3c2OCC4)cn1 [Example 154, N-{[7-hydroxy-10-(6-methoxypyridin-3-yl)-5-oxo-2,3-dihydro-5H-[1,4]oxazino[2,3,4-ij]quinolin-6-yl]carbonyl}glycine] | 3.7
O=C(O)CNC(=O)c1c(O)c2c(OC(F)(F)F)ccc3c2n(c1=O)CC(c1ccc(C(F)(F)F)cc1)O3 (single isomer, unassigned) [Example 87, 2-(7-hydroxy-5-oxo-8-(trifluoromethoxy)-2-(4-(trifluoromethyl)phenyl)-3,5-dihydro-2H-[1,4]oxazino[2,3,4-ij]quinoline-6-carboxamido)acetic acid] | 17
O=C(O)CNC(=O)c1c(O)c2cccc3c2n(c1=O)C(c1ccc(-c2ccncc2)cc1)CO3 (centres unmarked) [Example 148, N-{[7-hydroxy-5-oxo-3-(4-pyridin-4-ylphenyl)-2,3-dihydro-5H-[1,4]oxazino[2,3,4-ij]quinolin-6-yl]carbonyl}glycine] | 5.7
O=C(O)CNC(=O)c1c(O)c2c(Cl)ccc3c2n(c1=O)CC(c1ccc(C(F)(F)F)cc1)O3 (single isomer, unassigned) [Example 71, 2-(8-chloro-7-hydroxy-5-oxo-2-(4-(trifluoromethyl)phenyl)-3,5-dihydro-2H-[1,4]oxazino[2,3,4-ij]quinoline-6-carboxamido)acetic acid] | 5.1
Nc1ccc(-c2ccc(C3COc4cccc5c(O)c(C(=O)NCC(=O)O)c(=O)n3c45)cc2)cn1 (centres unmarked) [Example 149, N-({3-[4-(6-aminopyridin-3-yl)phenyl]-7-hydroxy-5-oxo-2,3-dihydro-5H-[1,4]oxazino[2,3,4-ij]quinolin-6-yl}carbonyl)glycine] | 13
Cc1noc(C)c1-c1ccc2c(O)c(C(=O)NCC(=O)O)c(=O)n3c2c1OCC3 [Example 155, N-{[10-(3,5-dimethylisoxazol-4-yl)-7-hydroxy-5-oxo-2,3-dihydro-5H-[1,4]oxazino[2,3,4-ij]quinolin-6-yl]carbonyl}glycine] | 3.3
COc1ccc(-c2ccc(C3COc4cccc5c(O)c(C(=O)NCC(=O)O)c(=O)n3c45)cc2)cc1 (centres unmarked) [Example 145, N-{[7-hydroxy-3-(4′-methoxybiphenyl-4-yl)-5-oxo-2,3-dihydro-5H-[1,4]oxazino[2,3,4-ij]quinolin-6-yl]carbonyl}glycine] | 6.7
O=C(O)CNC(=O)c1c(O)c2c(F)cc(F)c3c2n(c1=O)C(c1cncs1)CO3 (centres unmarked) [Example 175, 2-(8,10-difluoro-7-hydroxy-5-oxo-3-(thiazol-5-yl)-3,5-dihydro-2H-[1,4]oxazino[2,3,4-ij]quinoline-6-carboxamido)acetic acid] | 2.8
O=C(O)CNC(=O)c1c(O)c2ccc(-c3ccccc3)c3c2n(c1=O)CCO3 [Example 40, 2-(7-hydroxy-5-oxo-10-phenyl-3,5-dihydro-2H-[1,4]oxazino[2,3,4-ij]quinoline-6-carboxamido)acetic acid] | 1.6

Same assay, conditions: Human HIF-PHD2 IC50, FLAG-tagged full length PHD2; 0.2 μM 2-oxoglutarate, 0.5 μM HIF-1α peptide; 45 minutes at room temperature

IC50 [nM] | Structure (SMILES)
99 | O=C(O)CNC(=O)c1c(O)c2cc(Br)cc3c2n(c1=O)CCC3 [Example 47, 2-(9-Bromo-1-hydroxy-3-oxo-3,5,6,7-tetrahydropyrido[3,2,1-ij]quinoline-2-carboxamido)acetic acid]
